Data as given in the NIST ThermoML archive (doi:10.1016/j.fluid.2004.09.013).

Conditions: for vapor or sublimation pressure: Liquid; for mass density: Fluid (supercritical or subcritical phases), Vibrating tube method

C/C=C/C [(E)-2-butene]
Conditions | vapor or sublimation pressure [kPa]
391.25 K | 2128.9
396.15 K | 2323.1
401.02 K | 2529.8
405.96 K | 2755.8
411.21 K | 3016
416.99 K | 3326
423.45 K | 3697

Conditions | mass density [kg/m3]
393.24 K, 2756 kPa | 454.89
393.24 K, 10003 kPa | 497.51
393.24 K, 19992 kPa | 528.52
393.24 K, 24995 kPa | 539.91
393.24 K, 29988 kPa | 549.71
393.24 K, 34990 kPa | 558.37
393.24 K, 39993 kPa | 566.17
393.25 K, 4997 kPa | 472.39
393.25 K, 14998 kPa | 514.88
398.24 K, 2959 kPa | 443.84
398.24 K, 4981 kPa | 462.17
398.24 K, 19993 kPa | 522.99
398.24 K, 24990 kPa | 534.84
398.24 K, 29994 kPa | 545.03
398.24 K, 34989 kPa | 553.97
398.24 K, 39985 kPa | 561.98
398.25 K, 9988 kPa | 490.01
398.25 K, 14985 kPa | 508.6
403.24 K, 3180 kPa | 432.03
403.24 K, 4993 kPa | 451.14
403.24 K, 20001 kPa | 517.41
403.24 K, 24988 kPa | 529.74
403.24 K, 29983 kPa | 540.28
403.24 K, 40005 kPa | 557.82
403.25 K, 9990 kPa | 482.36
403.25 K, 14985 kPa | 502.24
403.25 K, 34985 kPa | 549.53
408.25 K, 3414 kPa | 419.31
408.25 K, 4983 kPa | 439.35
408.25 K, 9983 kPa | 474.42
408.25 K, 14983 kPa | 495.75
408.25 K, 19999 kPa | 511.74
408.25 K, 24993 kPa | 524.63
408.25 K, 29986 kPa | 535.55
408.25 K, 35006 kPa | 545.13
408.25 K, 39984 kPa | 553.58
413.25 K, 3663 kPa | 405.52
413.25 K, 4996 kPa | 426.54
413.25 K, 9995 kPa | 466.32
413.25 K, 14985 kPa | 489.18
413.25 K, 19983 kPa | 505.96
413.25 K, 24984 kPa | 519.43
413.25 K, 30003 kPa | 530.83
413.25 K, 34985 kPa | 540.64
413.25 K, 39999 kPa | 549.4
418.25 K, 3926 kPa | 390.44
418.25 K, 5005 kPa | 412.09
418.25 K, 10002 kPa | 457.93
418.25 K, 14984 kPa | 482.48
418.25 K, 19988 kPa | 500.19
418.25 K, 25008 kPa | 514.29
418.25 K, 30007 kPa | 526.05
418.25 K, 34987 kPa | 536.18
418.25 K, 40000 kPa | 545.19
423.25 K, 4203 kPa | 373.85
423.25 K, 4985 kPa | 394.86
423.25 K, 9986 kPa | 449.09
423.25 K, 14991 kPa | 475.65
423.25 K, 20002 kPa | 494.39
423.25 K, 24993 kPa | 509.02
423.25 K, 30004 kPa | 521.25
423.25 K, 34988 kPa | 531.71
423.25 K, 39993 kPa | 540.98
428.25 K, 4495 kPa | 355.87
428.25 K, 4987 kPa | 374.39
428.25 K, 9990 kPa | 440.12
428.25 K, 14983 kPa | 468.7
428.25 K, 20010 kPa | 488.52
428.25 K, 24997 kPa | 503.78
428.25 K, 30004 kPa | 516.44
428.25 K, 34994 kPa | 527.25
428.25 K, 39986 kPa | 536.76
433.25 K, 5019 kPa | 349.08
433.25 K, 9991 kPa | 430.38
433.25 K, 14995 kPa | 461.71
433.25 K, 19998 kPa | 482.53
433.25 K, 25004 kPa | 498.52
433.25 K, 30001 kPa | 511.61
433.25 K, 34993 kPa | 522.78
433.25 K, 39997 kPa | 532.57
438.25 K, 5017 kPa | 309.55
438.25 K, 9985 kPa | 420.62
438.25 K, 14989 kPa | 454.5
438.25 K, 19998 kPa | 476.52
438.25 K, 25008 kPa | 493.22
438.25 K, 30004 kPa | 506.79
438.25 K, 34989 kPa | 518.29
438.25 K, 39985 kPa | 528.34
443.25 K, 5019 kPa | 241.91
443.25 K, 9986 kPa | 410.38
443.25 K, 14991 kPa | 447.2
443.25 K, 20002 kPa | 470.46
443.25 K, 25001 kPa | 487.86
443.25 K, 30002 kPa | 501.91
443.25 K, 34997 kPa | 513.82
443.25 K, 39989 kPa | 524.15
448.25 K, 5019 kPa | 186.22
448.25 K, 9990 kPa | 399.76
448.25 K, 14990 kPa | 439.76
448.25 K, 19992 kPa | 464.3
448.25 K, 24997 kPa | 482.49
448.25 K, 29990 kPa | 497.07
448.25 K, 34988 kPa | 509.34
448.25 K, 39987 kPa | 519.97
453.25 K, 5019 kPa | 159.59
453.25 K, 9992 kPa | 388.61
453.25 K, 14987 kPa | 432.19
453.25 K, 20001 kPa | 458.19
453.25 K, 24998 kPa | 477.11
453.25 K, 29995 kPa | 492.22
